Results as given in patent US20210078988A1, “MODULATORS OF INDOLEAMINE 2,3-DIOXYGENASE” (GLAXOSMITHKLINE INTELLECTUAL PROPERTY DEVELOPMENT LIMITED, priority 2017, published 2021).

The molecules below were run against T1, indoleamine 2, 3-dioxygenase (IDO1) (Homo sapiens, UniProt P14902) (assay: PBMC IDO1 assay (kynurenine detection via mass spectrometry)). Settings: human PBMC stimulated with IFN-γ and LPS, 2 days, kynurenine by mass spectrometry; read-out: IDO1 PBMC pIC50 (converted).
T1 construct: human peripheral blood mononuclear cells (PBMC) (PB003F; host or cells: human PBMC stimulated with IFN-gamma and LPS
T1 sequence (P14902 whole entry): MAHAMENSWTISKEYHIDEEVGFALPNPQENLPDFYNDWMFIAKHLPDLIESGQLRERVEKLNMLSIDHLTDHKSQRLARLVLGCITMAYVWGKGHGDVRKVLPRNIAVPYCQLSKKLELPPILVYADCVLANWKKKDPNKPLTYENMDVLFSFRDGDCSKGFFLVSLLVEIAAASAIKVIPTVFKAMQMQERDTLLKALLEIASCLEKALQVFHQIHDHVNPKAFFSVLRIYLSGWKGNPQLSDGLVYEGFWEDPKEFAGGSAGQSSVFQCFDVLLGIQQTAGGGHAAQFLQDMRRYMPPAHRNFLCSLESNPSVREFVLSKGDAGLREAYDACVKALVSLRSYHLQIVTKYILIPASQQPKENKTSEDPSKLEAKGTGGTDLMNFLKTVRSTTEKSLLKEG
Format: cell-based
In short: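 Kynurenine output, read by RapidFire mass spectrometry as a ratio to internal standard, reflected IDO1 activity in human PBMCs induced with 100 ng/ml IFN-γ plus 50 ng/ml LPS and dosed with compound (11 points, 3-fold) over 2 days. Cytotoxicity was tracked by CellTiter-Glo; XC50 values came from Hill-slope fits.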

| Structure (SMILES) | IC50 [nM] |
| --- | --- |
| CC(C)CC(=O)N1CCC(CC(NC(=O)c2ccc(Cl)cc2)c2ccccc2)CC1 (centres unmarked) [Example 163, 4-chloro-N-(2-(1-(3-methylbutanoyl)piperidin-4-yl)-1-phenylethyl)benzamide] | 100 |
| CC(C)(C)CC(=O)N1CCC(CC(NC(=O)c2ccc(Cl)cc2)c2ccccc2)CC1 (centres unmarked) [Example 164, 4-chloro-N-(2-(1-(3,3-dimethylbutanoyl)piperidin-4-yl)-1-phenylethyl)benzamide] | 100 |
| CC(C)(C)NC(=O)N1CCC(CC(NC(=O)c2ccc(Cl)cc2)c2ccccc2)CC1 (centres unmarked) [Example 165, N-(tert-butyl)-4-(2-(4-chlorobenzamido)-2-phenylethyl)piperidine-1-carboxamide] | 100 |
| CC(C)CS(=O)(=O)N1CCC(CC(NC(=O)c2ccc(Cl)cc2)c2ccccc2)CC1 (centres unmarked) [Example 166, 4-chloro-N-(2-(1-(isobutylsulfonyl)piperidin-4-yl)-1-phenylethyl)benzamide] | 100 |
| CC#CCOc1ccc(C(=O)NC(CC2CCN(C(=O)OC(C)(C)C)CC2)c2ccccc2)cc1F (centres unmarked) [Example 167, tert-butyl 4-(2-(4-(but-2-yn-1-yloxy)-3-fluorobenzamido)-2-phenylethyl)piperidine-1-carboxylate] | 100 |
| CCC(CC)c1nc(C(CC2CCN(C(=O)OC(C)(C)C)CC2)NC(=O)c2ccc(F)cc2)no1 (centres unmarked) [Example 169, tert-butyl 4-(2-(4-fluorobenzamido)-2-(5-(pentan-3-yl)-1,2,4-oxadiazol-3-yl)ethyl)piperidine-1-carboxylate] | 100 |
| CC(C)(C)OC(=O)N1CCC(C[C@H](Nc2ncc(-c3ccccc3)o2)C2CC2)CC1 [Example 170, (S)-tert-butyl 4-(2-cyclopropyl-2-((5-phenyloxazol-2-yl)amino)ethyl)piperidine-1-carboxylate] | 100 |
| CCCNc1nnc(C(CC2CCN(C(=O)OC(C)(C)C)CC2)NC(=O)c2ccc(Cl)s2)o1 (centres unmarked) [Example 171, tert-butyl 4-(2-(5-chlorothiophene-2-carboxamido)-2-(5-(propylamino)-1,3,4-oxadiazol-2-yl)ethyl)piperidine-1-carboxylate] | 100 |
| COC(=O)N1CCC(CC(NC(=O)c2ccc(F)cc2)c2ccccc2)CC1 (centres unmarked) [Example 173, methyl 4-(2-(4-fluorobenzamido)-2-phenylethyl)piperidine-1-carboxylate] | 126 |
| Cc1ccc(C(CC2CCN(C(=O)OC(C)(C)C)CC2)NC(=O)c2ccc(F)cc2)cn1 (centres unmarked) [Example 174, tert-butyl 4-(2-(4-fluorobenzamido)-2-(6-methylpyridin-3-yl)ethyl)piperidine-1-carboxylate] | 126 |
| CC(C)(C)OC(=O)N1CCC(CC(NC(=O)c2ccc(F)cc2)c2ccc(=O)n(Cc3ccccc3)c2)CC1 (centres unmarked) [Example 176, tert-butyl 4-(2-(1-benzyl-6-oxo-1,6-dihydropyridin-3-yl)-2-(4-fluorobenzamido)ethyl)piperidine-1-carboxylate] | 126 |
| CCOC(=O)N1CCC(C[C@@H](NC(=O)c2ccc(Cl)s2)C2CC2)CC1 [Example 177, (R)-ethyl 4-(2-(5-chlorothiophene-2-carboxamido)-2-cyclopropylethyl)piperdine-1-carboxylate] | 126 |
| COc1ccc([C@@H](CC2CCN(C(=O)OC(C)(C)C)CC2)NC(=O)c2ccc(F)cc2)cn1 [Example 183, (R)-tert-butyl 4-(2-(4-fluorobenzamido)-2-(6-methoxypyridin-3-yl)ethyl)piperidine-1-carboxylate] | 158 |
| CC(C)NC(=O)N1CCC(CC(NC(=O)c2ccc(Cl)cc2)c2ccccc2)CC1 (centres unmarked) [Example 184, 4-(2-(4-chlorobenzamido)-2-phenylethyl)-N-isopropylpiperidine-1-carboxamide] | 158 |
| O=C(NC(CC1CCN(C(=O)OC2COC2)CC1)c1ccccc1)c1ccc(Cl)cc1 (centres unmarked) [Example 185, oxetan-3-yl 4-(2-(4-chlorobenzamido)-2-phenylethyl)piperidine-1-carboxylate] | 158 |
| O=C(NC(CC1CCN(C(=O)OC2CCOCC2)CC1)c1ccccc1)c1ccc(Cl)cc1 (centres unmarked) [Example 186, tetrahydro-2H-pyran-4-yl 4-(2-(4-chlorobenzamido)-2-phenylethyl)piperidine-1-carboxylate] | 158 |
| CC(C)(C)COC(=O)N1CCC(CC(NC(=O)c2ccc(Cl)cc2)c2ccccc2)CC1 (centres unmarked) [Example 187, neopentyl 4-(2-(4-chlorobenzamido)-2-phenylethyl)piperidine-1-carboxylate] | 158 |
| CC(C)OC(=O)N1CCC(C[C@@H](NC(=O)c2ccc(Cl)s2)C2CC2)CC1 [Example 188, (R)-isopropyl 4-(2-(5-chlorothiophene-2-carboxamido)-2-cyclopropylethyl)piperidine-1-carboxylate] | 158 |
| CC(C)(C)OC(=O)N1CCC(CC(NC(=O)C2CCCCC2)c2ccccc2)CC1 (centres unmarked) [Example 190, tert-butyl 4-(2-(cyclohexanecarboxamido)-2-phenylethyl)piperidine-1-carboxylate] | 200 |
| O=C(NC(CC1CCN(S(=O)(=O)C2CCCC2)CC1)c1ccccc1)c1ccc(Cl)cc1 (centres unmarked) [Example 193, 4-chloro-N-(2-(1-(cyclopentylsulfonyl)piperidin-4-yl)-1-phenylethyl)benzamide] | 200 |
| O=C(NC(CC1CCN(S(=O)(=O)N2CCCCC2)CC1)c1ccccc1)c1ccc(Cl)cc1 (centres unmarked) [Example 197, 4-chloro-N-(1-phenyl-2-(1-(piperidin-1-ylsulfonyl)piperidin-4-yl)ethyl)benzamide] | 251 |
| CC(C)(C)OC(=O)N1CCC(CC(NC(=O)c2ccc(F)cc2)c2nc(C3CCCC3)no2)CC1 (centres unmarked) [Example 198, tert-butyl 4-(2-(3-cyclopentyl-1,2,4-oxadiazol-5-yl)-2-(4-fluorobenzamido)ethyl)piperidine-1-carboxylate] | 251 |

Next, values leading:

| IC50 [nM] | Structure (SMILES) |
| --- | --- |
| 100 | COc1cc(C(=O)NC(CC2CCN(C(=O)OC(C)(C)C)CC2)c2ccccc2)ccc1Cl (centres unmarked) [Example 161, tert-butyl 4-(2-(4-chloro-3-methoxybenzamido)-2-phenylethyl)piperidine-1-carboxylate] |
| 100 | CC(C)(C)OC(=O)N1CCC(CC(NC(=O)c2ccc(C#N)c(F)c2)c2ccccc2)CC1 (centres unmarked) [Example 162, tert-butyl 4-(2-(4-cyano-3-fluorobenzamido)-2-phenylethyl)piperidine-1-carboxylate] |
| 100 | CC(C)(C)OC(=O)N1CCC(CC(NC(=O)c2cc(Cl)cs2)c2ccccc2)CC1 (centres unmarked) [Example 168, tert-butyl 4-(2-(4-chlorothiophene-2-carboxamido)-2-phenylethyl)piperidine-1-carboxylate] |
| 126 | CC(C)(C)OC(=O)N1CCC(CC(NC(=O)c2ccc3c(c2)OCO3)c2ccccc2)CC1 (centres unmarked) [Example 175, tert-butyl 4-(2-(benzo[d][1,3]dioxole-5-carboxamido)-2-phenylethyl)piperidine-1-carboxylate] |
| 126 | CSc1ccc(C(=O)NC(CC2CCN(C(=O)OC(C)(C)C)CC2)c2ccccc2)cc1 (centres unmarked) [Example 178, tert-butyl 4-(2-(4-(methylthio)benzamido)-2-phenylethyl)piperidine-1-carboxylate] |
| 126 | Cc1csc(C(=O)NC(CC2CCN(C(=O)OC(C)(C)C)CC2)c2ccccc2)c1 (centres unmarked) [Example 179, tert-butyl 4-(2-(4-methylthiophene-2-carboxamido)-2-phenylethyl)piperidine-1-carboxylate] |
| 126 | C=Cc1ccc(C(=O)NC(CC2CCN(C(=O)OC(C)(C)C)CC2)c2ccccc2)s1 (centres unmarked) [Example 180, tert-butyl 4-(2-phenyl-2-(5-vinylthiophene-2-carboxamido)ethyl)piperidine-1-carboxylate] |
| 158 | CC(C)(C)OC(=O)N1CCC(CC(NC(=O)c2cccc3cc[nH]c23)c2ccccc2)CC1 (centres unmarked) [Example 181, tert-butyl 4-(2-(1H-indole-7-carboxamido)-2-phenylethyl)piperidine-1-carboxylate] |
| 158 | CC(C)(C)OC(=O)N1CCC(CC(NC(=O)c2cc3ccccc3s2)c2ccccc2)CC1 (centres unmarked) [Example 182, tert-butyl 4-(2-(benzo[b]thiophene-2-carboxamido)-2-phenylethyl)piperidine-1-carboxylate] |
| 200 | CC(C)(C)OC(=O)N1CCC(CC(NC(=O)c2ccc(C#N)nc2)c2ccccc2)CC1 (centres unmarked) [Example 189, tert-butyl 4-(2-(6-cyanonicotinamido)-2-phenylethyl)piperidine-1-carboxylate] |
| 200 | Cc1ncc(C(=O)NC(CC2CCN(C(=O)OC(C)(C)C)CC2)c2ccccc2)s1 (centres unmarked) [Example 191, tert-butyl 4-(2-(2-methylthiazole-5-carboxamido)-2-phenylethyl)piperidine-1-carboxylate] |
| 200 | CCCOc1ccc(C(=O)NC(CC2CCN(C(=O)OC(C)(C)C)CC2)c2ccccc2)cc1 (centres unmarked) [Example 192, tert-butyl 4-(2-phenyl-2-(4-propoxybenzamido)ethyl)piperidine-1-carboxylate] |
| 251 | CC(C)(C)OC(=O)N1CCC(CC(NC(=O)c2ccccc2O)c2ccccc2)CC1 (centres unmarked) [Example 194, tert-butyl 4-(2-(2-hydroxybenzamido)-2-phenylethyl)piperidine-1-carboxylate] |
| 251 | CC(C)(C)OC(=O)N1CCC(CC(NC(=O)c2ccc(O)cc2)c2ccccc2)CC1 (centres unmarked) [Example 195, tert-butyl 4-(2-(4-hydroxybenzamido)-2-phenylethyl)piperidine-1-carboxylate] |
| 251 | CC(C)(C)OC(=O)N1CCC(CC(NC(=O)c2ccc(O)c(F)c2)c2ccccc2)CC1 (centres unmarked) [Example 196, tert-butyl 4-(2-(3-fluoro-4-hydroxybenzamido)-2-phenylethyl)piperidine-1-carboxylate] |
| 316 | CC(C)(C)OC(=O)N1CCC(CC(NC(=O)c2cccc(Cl)c2)c2ccccc2)CC1 (centres unmarked) [Example 199, tert-butyl 4-(2-(3-chlorobenzamido)-2-phenylethyl)piperidine-1-carboxylate] |
